Patent US5726195A, “Aminoacyl adenylate mimics as novel antimicrobial and antiparasitic agents” (Cubist Pharmaceuticals, Inc., priority 1996, dated 1998)
Converted amounts (≈) assume the structure as drawn.

Columns and labels:
[1] = tested on: M. catarrhalis ATCC 25240; assay: Whole cell antimicrobial screen, MIC; format: cell-based; conditions: Moraxella catarrhalis, ATCC25240
Procedure: (§1) Compounds were tested for antimicrobial activity against a panel of organisms according to standard procedures described by the National Committee for Clinical Laboratory Standards (NCCLS document M7-A3, Vol. 13, No. 25, 1993/NCCLS document M27-P, Vol. 12, No. 25, 1992). Compounds were dissolved in 100% dimethyl sulfoxide and were diluted to the final reaction concentration (0.1 μg/mL-500 μg/mL) in microbial growth media. In al cases the final concentration of dimethyl sulfoxide incubated with cells is less than or equal to 1%. For minimum inhibitory concentration (MIC) calculations, 2-fold dilutions of compounds were added to wells of a microtiter plate containing 5×10^4 bacteria or fungal cells in a final volume of 100 lambda of an appropriate media (Mueller-Hinton Broth; Haemophilus Test Media; Mueller-Hinton Broth+5% Sheep Blood; or […]). Plates were incubated overnight at an appropriate temperature (30° C.-37° C.) and optical densities (measure of cell growth) were measured using a commercial plate reader. The MIC value is defined as the lowest compound concentration inhibiting growth of the test organism.

C. albicans ATCC 10231 = assay: Whole cell antimicrobial screen, MIC; format: cell-based; conditions: Candida albicans, ATCC10231
Procedure: as §1

B. subtilis ATCC 6633 = assay: Whole cell antimicrobial screen, MIC; format: cell-based; conditions: Bacillus subtilis, ATCC6633
Procedure: as §1

S. aureus ATCC 14154 = assay: Whole cell antimicrobial screen, MIC; format: cell-based; conditions: Staphylococcus aureus, ATCC14154
Procedure: as §1

[2] = tested on: S. saprophyticus ATCC 35552; assay: Whole cell antimicrobial screen, MIC; format: cell-based; conditions: Staphylococcus saprophyticus, ATCC35552
Procedure: as §1

E. faecalis ATCC 33011 = assay: Whole cell antimicrobial screen, MIC; format: cell-based; conditions: Enterococcus faecalis, ATCC33011
Procedure: as §1

K. pneumonia ATCC 4352 = assay: Whole cell antimicrobial screen, MIC; format: cell-based; conditions: Klebsiella pneumoniae, ATCC4352
Procedure: as §1

S. aureus ATCC 6538P = assay: Whole cell antimicrobial screen, MIC; format: cell-based; conditions: Staphylococcus aureus, ATCC6538P
Procedure: as §1

[3] = tested on: S. epidermidis ATCC 33501; assay: Whole cell antimicrobial screen, MIC; format: cell-based; conditions: Staphylococcus epidermidis, ATCC33501
Procedure: as §1

E. faecium ATCC 6569 = assay: Whole cell antimicrobial screen, MIC; format: cell-based; conditions: Enterococcus faecium, ATCC6569
Procedure: as §1

[4] = molecular target: E. Coli. IleRS (isoleucyl-tRNA synthetase) (Escherichia coli, UniProt P00956); assay: Inhibition of isoleucyl-tRNA synthetase (aminoacylation of tRNA with [3H]isoleucine); format: biochemical; conditions: E. coli enzyme; irreversible inhibitors: values are 50% of the active enzyme concentration; read-out: IC50 E.Coli. IleRS
Procedure: The extent of aminoacylation of tRNA with isoleucine catalyzed by isoleucyl-tRNA synthetase enzyme was measured by monitoring the incorporation of [3H] isoleucine into trichloroacetic acid-precipitable tRNA in the presence of a compound of Formula I, as compared with activity in the absence of inhibitor. The isoleucyl-tRNA synthetase enzymes are well known in the prior art and can be obtained and purified by known methods (for example see: D. Kern et at., Biochimie, 61, 1257-1272 (1979) and J. Gilbart et al., Antimicrobial Agents and Chemotherapy, 37 (1), 32-38 (1993)).
Isoleucyl-tRNA synthetase enzyme (0.08-2.0 nM, preferably, 0.4 nM) was first pre-incubated at 25° C. with 0.05 mg/ml bovine serum albumin, 10 mM DTT, 2.5% dimethyl sulfoxide, with or without a compound of Formula I, for 20 minutes. At this point a substrate solution (a solution containing the following: ATP, [^3 H]isoleucine, tRNA, HEPES, magnesium chloride, and potassium chloride) was added to give a final concentration of 0.0286 mg/ml bovine serum albumin, 5.7 mM DTT, 4 mM ATP, 5-20 μM [^3 H] isoleucine (1-15 Ci/mmol), 90 μM crude tRNA or 2 μM isoleucine specific tRNA, 1.4% dimethyl sulfoxide, 30 mM HEPES (pH 7.5), 10 mM magnesium chloride, and 50 mM potassium chloride and incubated at 25° C. Aliquots were removed at selected times (e.g. 5, 10, 20 minutes) and applied to 3MM filter paper discs (Whatman) and then dropped into 5% (wt/vol) trichloroacetic acid for >5 minutes. Filters were washed for three 10-minute periods in 5% trichloroacetic acid, rinsed in 95% ethanol and diethyl ether, and radioactivity was measured with Betafluor™ (National Diagnostics) by liquid scintillation counting.
Inhibitor activity is reported in Table II as an IC50 value (inhibitor concentration causing 50% inhibition of enzyme activity) per a known amount of active enzyme. In the case of irreversible inhibitors (1:1 stoichiometry) these values are 50% of the active enzyme concentration. The IC50 (in nM, E. coli) values of representative compounds of the present invention are listed in the second column of Table II.

S. pyogenes ATCC 8668 = assay: Whole cell antimicrobial screen, MIC; format: cell-based; conditions: Streptococcus pyogenes, ATCC8668
Procedure: as §1

S. pneumonia ATCC 49619 = assay: Whole cell antimicrobial screen, MIC; format: cell-based
Procedure: as §1

H. influenza ATCC 49247 = assay: Whole cell antimicrobial screen, MIC; format: cell-based
Procedure: as §1

[5] = tested on: isoleucyl-tRNA synthetase; conditions: Gram positive bacterial pathogens such as Staphylococcus aureus; cited from earlier work

E. Coli. IleRS (isoleucyl-tRNA synthetase), sequence (P00956 whole entry): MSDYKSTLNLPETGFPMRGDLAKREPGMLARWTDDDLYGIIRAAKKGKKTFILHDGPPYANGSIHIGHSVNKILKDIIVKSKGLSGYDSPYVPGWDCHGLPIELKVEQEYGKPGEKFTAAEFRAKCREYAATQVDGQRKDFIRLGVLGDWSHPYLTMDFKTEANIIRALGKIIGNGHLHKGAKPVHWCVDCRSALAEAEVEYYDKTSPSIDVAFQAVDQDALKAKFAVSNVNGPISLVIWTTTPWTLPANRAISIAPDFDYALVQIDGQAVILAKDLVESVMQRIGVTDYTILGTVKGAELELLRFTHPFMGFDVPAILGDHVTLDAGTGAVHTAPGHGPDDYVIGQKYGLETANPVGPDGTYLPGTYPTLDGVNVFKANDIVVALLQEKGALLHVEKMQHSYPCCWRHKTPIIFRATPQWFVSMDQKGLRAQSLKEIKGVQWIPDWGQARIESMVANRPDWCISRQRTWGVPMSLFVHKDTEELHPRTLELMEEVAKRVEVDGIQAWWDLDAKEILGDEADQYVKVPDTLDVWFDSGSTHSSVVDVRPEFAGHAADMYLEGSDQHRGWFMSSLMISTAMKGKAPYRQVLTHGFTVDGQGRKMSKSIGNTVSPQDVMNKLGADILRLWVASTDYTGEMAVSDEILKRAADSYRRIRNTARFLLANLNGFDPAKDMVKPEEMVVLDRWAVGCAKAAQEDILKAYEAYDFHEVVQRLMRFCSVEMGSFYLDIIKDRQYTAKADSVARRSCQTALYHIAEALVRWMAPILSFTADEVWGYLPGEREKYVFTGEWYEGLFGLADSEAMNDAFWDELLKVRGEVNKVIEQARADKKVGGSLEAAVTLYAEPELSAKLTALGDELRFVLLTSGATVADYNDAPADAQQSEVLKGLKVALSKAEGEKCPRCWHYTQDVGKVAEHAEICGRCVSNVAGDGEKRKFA

SMILES | MIC [1] [µg/mL] | MIC (C. albicans ATCC 10231) [µg/mL] | MIC (B. subtilis ATCC 6633) [µg/mL] | MIC (S. aureus ATCC 14154) [µg/mL] | MIC [2] [µg/mL] | MIC (E. faecalis ATCC 33011) [µg/mL] | MIC (K. pneumonia ATCC 4352) [µg/mL] | MIC (S. aureus ATCC 6538P) [µg/mL] | MIC [3] [µg/mL] | MIC (E. faecium ATCC 6569) [µg/mL] | IC50 [4] [nM] | MIC (S. pyogenes ATCC 8668) [µg/mL] | MIC (S. pneumonia ATCC 49619) [µg/mL] | MIC (H. influenza ATCC 49247) [µg/mL] | inhibition of isoleucyl adenylate formation [5]
CC[C@H](C)[C@H](N)C(=O)NS(=O)(=O)OC[C@H]1O[C@@H](CCn2nnc(-c3ccc(-c4ccccc4C)cc3)n2)[C@H](O)[C@@H]1O [XIX] | 50 (≈ 84.9 µM) | 500 (≈ 849 µM) | 50 (≈ 84.9 µM) | 50 (≈ 84.9 µM) | 25 (≈ 42.5 µM) | 300 (≈ 510 µM) | 100 (≈ 170 µM) | 50 (≈ 84.9 µM) | 5 (≈ 8.49 µM) | 200 (≈ 340 µM) | 5.3 | – | – | – | –
CC[C@H](C)[C@H](N)C(=O)NS(=O)(=O)OC[C@H]1O[C@@H](CCn2nnc(-c3ccc(C#Cc4ccccc4)cc3)n2)[C@H](O)[C@@H]1O [IV] | 5 (≈ 8.35 µM) | > 200 | 25 (≈ 41.8 µM) | 100 (≈ 167 µM) | 10 (≈ 16.7 µM) | > 500 | 50 (≈ 83.5 µM) | 10 (≈ 16.7 µM) | 2 (≈ 3.34 µM) | > 500 | 4.5 | – | – | – | –
CC[C@H](C)[C@H](N)C(=O)NS(=O)(=O)OC[C@H]1O[C@@H](CCn2nnc(N3CCN(c4ccccc4)CC3)n2)[C@H](O)[C@@H]1O [XXIV] | 400 (≈ 686 µM) | 500 (≈ 858 µM) | 400 (≈ 686 µM) | > 400 | 400 (≈ 686 µM) | > 400 | 400 (≈ 686 µM) | 400 (≈ 686 µM) | 50 (≈ 85.8 µM) | 400 (≈ 686 µM) | 1.3 | – | – | – | –
CC[C@H](C)[C@H](N)C(=O)NS(=O)(=O)OC[C@H]1O[C@@H](CCn2nnc(-c3ccc(-c4ccccc4C)c(C)c3)n2)[C@H](O)[C@@H]1O [XXII] | 50 (≈ 83 µM) | > 500 | 25 (≈ 41.5 µM) | 25 (≈ 41.5 µM) | 10 (≈ 16.6 µM) | 200 (≈ 332 µM) | 100 (≈ 166 µM) | 25 (≈ 41.5 µM) | 5 (≈ 8.3 µM) | 100 (≈ 166 µM) | 11 | 10 (≈ 16.6 µM) | 25 (≈ 41.5 µM) | – | –
CC[C@H](C)[C@H](N)C(=O)NS(=O)(=O)OC[C@H]1O[C@@H](CCn2nnc(-c3ccc(Sc4ccccc4)cc3)n2)[C@H](O)[C@@H]1O [IX] | – | > 500 | – | 50 (≈ 82.4 µM) | 25 (≈ 41.2 µM) | 500 (≈ 824 µM) | – | 25 (≈ 41.2 µM) | 5 (≈ 8.24 µM) | 10 (≈ 16.5 µM) | 5 | 0.5 (≈ 0.824 µM) | – | – | –
CC[C@H](C)[C@H](N)C(=O)NS(=O)(=O)OC[C@H]1O[C@@H](CCn2nnc(-c3ccc(Oc4ccc(C(=O)OCc5ccccc5)cc4)cc3)n2)[C@H](O)[C@@H]1O [XI] | – | > 500 | – | 25 (≈ 34.5 µM) | 10 (≈ 13.8 µM) | > 500 | – | 10 (≈ 13.8 µM) | 5 (≈ 6.9 µM) | 25 (≈ 34.5 µM) | 109 | 5 (≈ 6.9 µM) | 50 (≈ 69 µM) | 25 (≈ 34.5 µM) | –
CC[C@H](C)[C@H](N)C(=O)NS(=O)(=O)OC[C@H]1O[C@@H](CCn2nnc(-c3ccc(C#Cc4ccc([N+](=O)[O-])o4)cc3)n2)[C@H](O)[C@@H]1O [II, [S-(R*,R*)]-3,6-anhydro-1,2-dideoxy-1-[5-[4-[(5-nitro-2-furyl)ethynyl]phenyl]-2H-tetrazol-2-yl]-D-allo-heptitol 7-(2-amino-3-methyl-1-oxopentyl)sulfamate] | – | 100 (≈ 158 µM) | – | 8 (≈ 12.6 µM) | 8 (≈ 12.6 µM) | 256 (≈ 404 µM) | – | 4 (≈ 6.31 µM) | 1 (≈ 1.58 µM) | 64 (≈ 101 µM) | 1 | 16 (≈ 25.3 µM) | 16 (≈ 25.3 µM) | – | –
CC[C@H](C)[C@H](N)C(=O)NS(=O)(=O)OC[C@H]1O[C@@H](CCn2nnc(-c3ccc(-c4ccccc4)cc3C)n2)[C@H](O)[C@@H]1O [XXI] | < 50 | – | 100 (≈ 170 µM) | 500 (≈ 849 µM) | 50 (≈ 84.9 µM) | > 500 | 100 (≈ 170 µM) | 100 (≈ 170 µM) | 50 (≈ 84.9 µM) | 500 (≈ 849 µM) | 0.5 | – | – | – | –
CC[C@H](C)[C@H](N)C(=O)NS(=O)(=O)OC[C@H]1O[C@@H](CCn2nnc(-c3ccc(-c4ccccc4)c(C)c3)n2)[C@H](O)[C@@H]1O [XX] | 25 (≈ 42.5 µM) | > 500 | 50 (≈ 84.9 µM) | 50 (≈ 84.9 µM) | 25 (≈ 42.5 µM) | 500 (≈ 849 µM) | 50 (≈ 84.9 µM) | 50 (≈ 84.9 µM) | 25 (≈ 42.5 µM) | 100 (≈ 170 µM) | 0.6 | – | – | > 500 | –
CC(=CC(=O)OCCCCCCCCC(=O)O)CC1OCC(CC2OC2C(C)C(C)O)C(O)C1O (stereo not drawn) [Pseudomonic acid A] | – | – | – | – | – | – | – | – | – | – | – | – | – | – | inhibits isoleucyl adenylate formation
CC[C@H](C)[C@H](N)C(=O)NS(=O)(=O)OC[C@H]1O[C@@H](CCn2nnc(-c3ccc(OCc4ccc([N+](=O)[O-])s4)cc3)n2)[C@H](O)[C@@H]1O [XVIII] | – | 100 (≈ 153 µM) | – | 25 (≈ 38.1 µM) | 5 (≈ 7.63 µM) | > 500 | – | 5 (≈ 7.63 µM) | 5 (≈ 7.63 µM) | > 500 | 0.6 | 2 (≈ 3.05 µM) | – | – | –
